According to paper PMC10586451, “Design, Synthesis, Pharmacological Activities, Structure–Activity Relationship, and In Silico Studies of Novel 5-Substituted-2-(morpholinoimino)-thiazolidin-4-ones” (ACS Omega, 2023):
Values joined by “and” are separate entries in the source; they are usually repeats but may differ in a detail not shown here. Equal values may be shown once.

Assays:
[1] = molecular target: T1, Acetylcholinesterase (AChE) (Electrophorus electricus, UniProt O42275); experiment: biochemical; details: for SI for AChE: Selectivity index: IC50 for BChE/IC50 for AChE; for IC50: mean ± SEM of three parallel measurements
T1 construct: Acetylcholinesterase (AChE) from electric eel; from tissue; host or cells: electric eel
T1 sequence (O42275 24-633): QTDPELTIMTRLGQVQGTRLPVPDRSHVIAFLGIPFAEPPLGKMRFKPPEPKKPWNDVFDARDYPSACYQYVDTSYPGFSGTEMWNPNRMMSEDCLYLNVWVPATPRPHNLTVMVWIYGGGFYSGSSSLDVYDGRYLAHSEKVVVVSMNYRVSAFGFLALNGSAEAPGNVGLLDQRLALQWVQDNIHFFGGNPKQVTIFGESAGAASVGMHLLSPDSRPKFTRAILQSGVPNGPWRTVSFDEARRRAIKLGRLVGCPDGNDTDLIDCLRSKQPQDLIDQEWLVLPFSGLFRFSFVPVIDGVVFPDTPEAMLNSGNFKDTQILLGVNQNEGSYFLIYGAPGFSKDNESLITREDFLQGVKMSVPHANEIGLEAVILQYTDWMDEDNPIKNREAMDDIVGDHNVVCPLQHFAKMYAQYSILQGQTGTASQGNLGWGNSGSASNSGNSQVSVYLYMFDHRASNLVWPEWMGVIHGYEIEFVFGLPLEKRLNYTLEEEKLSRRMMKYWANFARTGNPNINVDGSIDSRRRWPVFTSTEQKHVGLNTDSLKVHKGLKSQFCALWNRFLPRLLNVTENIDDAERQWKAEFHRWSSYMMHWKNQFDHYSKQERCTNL
Procedure: (§1) Anticholinesterase activity of all was performed according to the Ellman’s method using a 96-well microplate reader. Acetylcholinesterase (AChE) from electric eel and butyrylcholinesterase (BChE) from horse serum were used. Acetylthiocholine iodide and butyrylthiocholine chloride were utilized as substrates. DTNB (5,50-dithiobis(2-nitrobenzoic) acid was used as a coloring agent to measure the anticholinesterase activity.[43] Measurements were obtained in triplicate.

[2] = molecular target: T2, butyrylcholinesterase (BChE) (Equus caballus, UniProt P81908); experiment: biochemical; details: for SI for BChE: Selectivity index: IC50 for AChE/IC50 for BChE; for IC50: mean ± SEM of three parallel measurements
T2 construct: butyrylcholinesterase (BChE) from horse serum; from tissue; host or cells: horse serum
T2 sequence (P81908 whole entry): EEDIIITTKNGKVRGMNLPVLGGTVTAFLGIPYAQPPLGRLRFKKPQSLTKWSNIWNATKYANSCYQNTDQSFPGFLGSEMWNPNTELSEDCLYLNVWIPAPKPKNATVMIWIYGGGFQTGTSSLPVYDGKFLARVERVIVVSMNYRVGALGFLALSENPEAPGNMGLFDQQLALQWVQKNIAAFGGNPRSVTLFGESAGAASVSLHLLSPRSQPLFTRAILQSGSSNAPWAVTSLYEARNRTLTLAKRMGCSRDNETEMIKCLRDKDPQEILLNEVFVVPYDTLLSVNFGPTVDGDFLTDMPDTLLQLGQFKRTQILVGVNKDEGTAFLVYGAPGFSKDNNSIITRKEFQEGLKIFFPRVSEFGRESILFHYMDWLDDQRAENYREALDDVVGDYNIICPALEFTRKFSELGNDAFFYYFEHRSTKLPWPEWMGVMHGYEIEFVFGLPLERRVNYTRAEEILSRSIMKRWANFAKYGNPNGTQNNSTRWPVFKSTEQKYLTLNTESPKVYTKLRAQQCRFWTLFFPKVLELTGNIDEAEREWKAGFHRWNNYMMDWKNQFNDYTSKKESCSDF
Procedure: as §1

[3] = CUPRAC assay (Cu(II) reducing power); details: concentration at 0.500 absorbance; mean ± SEM
Procedure: (§2) DMSO solutions of four different concentrations (12.5, 25, 50, and 100 μM) of the synthesized compound 1–26 were prepared. DMSO was used as a control, while BHA and α-TOC were used as antioxidant standards.

tyrosinase = format: biochemical; details: mean ± SEM of three parallel measurements
urease = urease (Canavalia ensiformis, UniProt P07374); experiment: biochemical; details: urease activity IC50, mean ± SEM of three parallel measurements
urease, sequence (P07374 whole entry, looked up): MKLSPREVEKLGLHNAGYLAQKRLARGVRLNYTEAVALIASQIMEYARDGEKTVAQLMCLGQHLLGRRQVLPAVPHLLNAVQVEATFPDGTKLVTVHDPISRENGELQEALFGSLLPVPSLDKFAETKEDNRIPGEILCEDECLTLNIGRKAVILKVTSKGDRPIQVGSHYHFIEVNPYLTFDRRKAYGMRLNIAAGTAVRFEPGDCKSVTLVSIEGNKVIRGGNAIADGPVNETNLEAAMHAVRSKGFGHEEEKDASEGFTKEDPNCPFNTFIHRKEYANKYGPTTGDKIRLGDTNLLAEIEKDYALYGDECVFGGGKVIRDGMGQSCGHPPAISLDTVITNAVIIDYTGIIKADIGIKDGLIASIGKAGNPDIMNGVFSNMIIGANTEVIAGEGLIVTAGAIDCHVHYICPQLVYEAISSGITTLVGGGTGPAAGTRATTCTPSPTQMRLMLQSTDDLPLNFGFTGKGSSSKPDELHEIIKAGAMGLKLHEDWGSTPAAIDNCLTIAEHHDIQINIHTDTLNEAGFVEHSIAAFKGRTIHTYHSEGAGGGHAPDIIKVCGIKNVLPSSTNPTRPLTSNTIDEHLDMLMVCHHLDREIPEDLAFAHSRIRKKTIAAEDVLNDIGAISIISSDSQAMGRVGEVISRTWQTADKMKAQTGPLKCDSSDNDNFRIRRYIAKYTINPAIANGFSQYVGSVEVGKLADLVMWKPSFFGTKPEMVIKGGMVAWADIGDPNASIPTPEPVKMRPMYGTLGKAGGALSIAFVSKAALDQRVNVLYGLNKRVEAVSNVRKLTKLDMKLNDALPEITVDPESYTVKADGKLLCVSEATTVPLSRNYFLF

[4] = ABTS cation radical scavenging assay; details: mean ± SEM of three parallel measurements
Procedure: as §2

[5] = DPPH radical scavenging assay; details: mean ± SEM of three parallel measurements
Procedure: as §2

[6] = β-carotene-linoleic acid assay (antioxidant); details: mean ± SEM of three parallel measurements
Procedure: as §2

| SMILES | SI for AChE [1] | IC50 [1] | SI for BChE [2] | IC50 [2] | CUPRAC assay A0.5 [3] | IC50 (tyrosinase) | IC50 (urease) | IC50 [4] | IC50 [5] | IC50 [6] |
| --- | --- | --- | --- | --- | --- | --- | --- | --- | --- | --- |
| O=C1C(=Cc2nccs2)SC(=NN2CCOCC2)N1c1ccccc1 [Compound 20] | 1.26 | 26.8 ± 0.77 µM | 0.79 | 34.05 ± 0.06 µM | 36.95 ± 0.03 µM | 21400 ± 310 µM | 16.8 ± 0.19 µM | 31.3 ± 0.77 µM | 35.2 ± 0.6 µM | 32.8 ± 0.33 µM |
| O=C1C(=Cc2ccc(N3CCCCC3)cc2)SC(=NN2CCOCC2)N1c1ccccc1 [Compound 13, 2-(Morpholinoimino)-3-phenyl-5-(4-(piperidin-1-yl)benzylidene)thiazolidine-4-one] | 1.61 | 20 ± 0.37 µM | 0.62 | 32.21 ± 0.11 µM | 23.66 ± 0.02 µM | 26200 ± 1110 µM | 30.3 ± 0.95 µM | 27.16 ± 0.06 µM | 29 ± 0.29 µM | 20.2 ± 0.14 µM |
| O=C1C(=Cc2ccc[nH]2)SC(=NN2CCOCC2)N1c1ccccc1 [Compound 18, 5-((1H-Pyrrol-2-yl)methylene)-2-(morpholinoimino)-3-phenylthiazolidin-4-one] | 1.54 | 21.4 ± 0.92 µM | 0.65 | 32.9 ± 0.75 µM | 26.60 ± 0.02 µM | 16000 ± 410 µM | 20.2 ± 0.77 µM | 31.04 ± 0.17 µM | 35.07 ± 0.03 µM | 33.62 ± 0.04 µM |
| O=C1C(=Cc2ccc(O)cc2)SC(=NN2CCOCC2)N1c1ccccc1 [Compound 5, 5-(4-Hydroxybenzaldehyde)-2-(morpholinoimino)-3 phenylthiazolidine-4-one] | 1.38 | 27 ± 0.48 µM | 0.73 | 37.1 ± 0.57 µM | 24.48 ± 0.02 µM | 28000 ± 350 µM | 55.6 ± 0.81 µM | 28.74 ± 0.19 µM | 42.8 ± 0.53 µM | 36.2 ± 0.46 µM |
| O=C1C(=Cc2ccc3ccccc3n2)SC(=NN2CCOCC2)N1c1ccccc1 [Compound 26, 2-(Morpholinoimino)-3-phenyl-5-(quinolin-2-ylmethylene)thiazolidin-4-one] | 1.30 | 19.8 ± 0.37 µM | 0.77 | 25.7 ± 0.53 µM | 25.91 ± 0.02 µM | 8760 ± 900 µM | 21.5 ± 0.44 µM | 26.5 ± 0.63 µM | 29.7 ± 0.9 µM | 22.4 ± 0.3 µM |
| O=C1C(=Cc2ccncc2)SC(=NN2CCOCC2)N1c1ccccc1 [Compound 23, 2-(Morpholinoimino)-3-phenyl-5-(pyridin-4-ylmethylene)thiazolidin-4-one] | 1.29 | 19.7 ± 0.54 µM | 0.78 | 25.4 ± 0.26 µM | 31.12 ± 0.00 µM | 8050 ± 110 µM | 25 ± 0.54 µM | 32.72 ± 0.19 µM | 36.14 ± 0.16 µM | 34.6 ± 0.5 µM |
| CN(C)c1ccc(C=C2SC(=NN3CCOCC3)N(c3ccccc3)C2=O)cc1 [Compound 10] | 1.42 | 26.48 ± 0.25 µM | 0.71 | 37.53 ± 0.2 µM | 28.65 ± 0.00 µM | 25000 ± 670 µM | 49.3 ± 0.55 µM | 30.1 ± 0.69 µM | 37.43 ± 0.29 µM | 34.23 ± 0.2 µM |
| Cn1cccc1C=C1SC(=NN2CCOCC2)N(c2ccccc2)C1=O [Compound 19] | 1.44 | 20.6 ± 0.55 µM | 0.69 | 29.7 ± 0.72 µM | 25.67 ± 0.00 µM | 19280 ± 90 µM | 18.2 ± 0.5 µM | 29.88 ± 0.2 µM | 34.45 ± 0.05 µM | 30.8 ± 0.47 µM |
| O=C1C(=Cc2ccc([N+](=O)[O-])cc2)SC(=NN2CCOCC2)N1c1ccccc1 [Compound 9, 5-(4-Nitrobenzylidene)-2-(morpholinoimino)-3-phenylthiazolidin-4-one] | 1.35 | 29.8 ± 0.81 µM | 0.74 | 40.19 ± 0.19 µM | 21.87 ± 0.01 µM | 25420 ± 120 µM | 51.7 ± 0.12 µM | 25.2 ± 0.37 µM | 32.3 ± 0.55 µM | 30.44 ± 0.17 µM |
| O=C1C(=Cc2c[nH]c3ccccc23)SC(=NN2CCOCC2)N1c1ccccc1 [Compound 24, 5-((1H-Indol-3-yl)methylene)-2-(morpholinoimino)-3-phenylthiazolidin-4-one] | 1.32 | 19.5 ± 0.29 µM | 0.76 | 25.7 ± 0.69 µM | 30.04 ± 0.02 µM | 7210 ± 270 µM | 23.6 µM and 22.5 µM | 30 ± 1.01 µM | 33.24 ± 0.21 µM | 27.73 ± 0.23 µM |
| Cc1c(C)c2c(c(C)c1O)CC[C@@](C)(CCC[C@H](C)CCC[C@H](C)CCCC(C)C)O2 [α-TOC, reference compound] |  |  |  |  | 40.48 ± 0.02 µM |  |  | 4.87 ± 0.45 µM | 12.26 ± 0.07 µM | 4.5 ± 0.09 µM |
